Results published in ChEMBL document CHEMBL1201862, “PubChem BioAssay data set” (2004).
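Each compound was tested at five concentrations against cells in 96-well plates for 48 hours. At the GI50, growth is halved.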 The source made the active and inactive calls. Rule as the data show it: active = GI50 up to about 1.1 µM and inactive = higher.

Key:
Test in all cases: growth of human tumour cells (NCI), 48 h
OVCAR-8 = system: OVCAR-8
NCI-H23 = system: NCI-H23
SK-OV-3 = system: SK-OV-3
T47D = system: T47D
TK-10 = system: TK-10
Hs-578T = system: Hs-578T
SW-620 = system: SW-620
HCT-116 = system: HCT-116
XF498 = system: XF498
SF-539 = system: SF-539
SR = system: SR
M14 = system: M14
MOLT-4 = system: MOLT-4
EKVX = system: EKVX
KM-20L2 = system: KM-20L2
HOP-92 = system: HOP-92
RXF 393 = system: RXF 393
UO-31 = system: UO-31
LXFL 529 = system: LXFL 529
UACC-257 = system: UACC-257

## COc1cc2c(c(OC)c1OC)-c1ccc(SC)c(=O)cc1[C@@H](NC(=O)C(F)(F)F)CC2
OVCAR-8
  GI50: < 0.01 µM (active)
NCI-H23
  GI50: < 0.01 µM (active)
SK-OV-3
  GI50: 0.13 µM (active)
T47D
  GI50: > 60.8 µM (inactive)
TK-10
  GI50: 8.63 µM (inactive)
Hs-578T
  GI50: < 0.01 µM (active)
SW-620
  GI50: < 0.01 µM (active)
HCT-116
  GI50: < 0.01 µM (active)
XF498
  GI50: 0.0585 µM (active)
SF-539
  GI50: < 0.01 µM (active)
SR
  GI50: < 0.01 µM (active)
M14
  GI50: < 0.01 µM (active)
MOLT-4
  GI50: < 0.01 µM (active)
EKVX
  GI50: 13.8 µM (inactive)
KM-20L2
  GI50: < 0.01 µM (active)
HOP-92
  GI50: < 0.01 µM (active)
RXF 393
  GI50: < 0.01 µM (active)
UO-31
  GI50: < 0.0146 µM (active)
LXFL 529
  GI50: < 0.01 µM (active)
UACC-257
  GI50: < 0.01 µM (active)

## FC(F)(F)c1nc(Br)[nH]c1C(F)(F)F
OVCAR-8
  GI50: > 100 µM (inactive)
NCI-H23
  GI50: 86.7 µM (inactive)
SK-OV-3
  GI50: > 100 µM (inactive)
TK-10
  GI50: > 100 µM (inactive)
SW-620
  GI50: > 100 µM (inactive)
HCT-116
  GI50: 45.7 µM (inactive)
XF498
  GI50: > 100 µM (inactive)
SF-539
  GI50: > 100 µM (inactive)
SR
  GI50: 35.6 µM (inactive)
M14
  GI50: > 100 µM (inactive)
MOLT-4
  GI50: > 100 µM (inactive)
EKVX
  GI50: > 100 µM (inactive)
KM-20L2
  GI50: 64.6 µM (inactive)
HOP-92
  GI50: 27.8 µM (inactive)
RXF 393
  GI50: 73.5 µM (inactive)
UO-31
  GI50: > 100 µM (inactive)
LXFL 529
  GI50: 92.3 µM (inactive)
UACC-257
  GI50: > 100 µM (inactive)

## O=C(NCc1ccc2ccc3cccnc3c2n1)c1ccc[n+](Cc2ccccc2)c1
OVCAR-8
  GI50: > 100 µM (inactive)
NCI-H23
  GI50: > 100 µM (inactive)
SK-OV-3
  GI50: > 100 µM (inactive)
TK-10
  GI50: > 100 µM (inactive)
SW-620
  GI50: > 100 µM (inactive)
HCT-116
  GI50: > 100 µM (inactive)
XF498
  GI50: > 100 µM (inactive)
SF-539
  GI50: > 100 µM (inactive)
SR
  GI50: > 100 µM (inactive)
M14
  GI50: > 100 µM (inactive)
MOLT-4
  GI50: > 100 µM (inactive)
EKVX
  GI50: > 100 µM (inactive)
KM-20L2
  GI50: > 100 µM (inactive)
HOP-92
  GI50: 37.7 µM (inactive)
RXF 393
  GI50: > 100 µM (inactive)
UO-31
  GI50: > 100 µM (inactive)
LXFL 529
  GI50: 67.6 µM (inactive)
UACC-257
  GI50: > 100 µM (inactive)
